Assay type in all cases: cell-based, Staphylococcus aureus
One assay deals with CA-MRSA USA300. Nature of the assay: Checkerboard (FIC) analysis against CA-MRSA USA300. The conditions noted are these: for drug-drug interaction with cefuroxime (checkerboard secondary screen): in combination with cefuroxime. Here is the method: Here a matrix of drug concentrations were tested in combinations at the concentrations shown (μg/mL). Greyscale indicates growth—darker is more growth, lighter is less growth. FIC index is a measure of synergy and is calculated as follows: FIC index=FIC (cefuroxime)+FIC (drug compound).
The combination of ticlopidine and cefuroxime was further tested as above against a variety of S. aureus strains as shown in Table 1 below.
FIC index=FIC (β-lactam)+FTC (ticlopidine). […]

The subject of assay [1] is S. aureus (Newman strain). Briefly: Checkerboard (FIC) analysis against S. aureus Newman. The conditions noted are these: antibiotic in combination with ticlopidine; S. aureus (Newman strain).
For another assay, the system named is MRSA. Nature of the assay: Analogues in combination with cefuroxime against MRSA (FIC index). How it is done: A series of analogues were synthesized (as shown in Table 5) in which the thienopyridine ring was removed.
These were tested in combination with cefuroxime against MRSA and results are shown below (Table 6).

The mark [2] stands for this setting: antibiotic in combination with ticlopidine, CA-MRSA USA 300, FIC (β-lactam)+FIC (ticlopidine).
Setting [3] is: novel analogue in combination with cefuroxime, MRSA (Table 6).
The mark [4] stands for this setting: compound in combination with cefuroxime, MRSA (Table 5).

A value given as a limit tells only on which side of the number the result lay.

By MIC is commonly meant the lowest concentration found to suppress growth. On to `CC(=O)Oc1cc2c(s1)CCN(C(C(=O)C1CC1)c1ccccc1F)C2` (racemic) [Prasugrel, (RS)-5-[2-cyclopropyl-1-(2-fluorophenyl)-2-oxoethyl]-4,5,6,7-tetrahydrothieno[3,2-c]pyridin-2-yl acetate], for which, in the assay with CA-MRSA USA300 (Staphylococcus aureus, read-out: MIC thienopyridine), the MIC was above 128 µg/mL. Besides, in the assay with CA-MRSA USA300 (in the presence of cefuroxime, CA-MRSA USA300 (Table 4)), the FIC thienopyridine worked out at 0.25. The “FIC index” value is “≦0.50” with CA-MRSA USA300 (thienopyridine in combination with cefuroxime, CA-MRSA USA300 (Table 4)) and at most 0.50 with CA-MRSA USA300 (thienopyridine in combination with cefuroxime, CA-MRSA USA300 (Table 4), listed as prasugrel).
In the case of `CC1(C)S[C@@H]2[C@H](NC(=O)[C@H](N)c3ccccc3)C(=O)N2[C@H]1C(=O)O` [Ampicillin], the FIC index entry is recorded as “≦1” in assay [1] and “≦0.5” in the assay on CA-MRSA USA300 (setting [2]).
On to `CN1[C@@H]2CC[C@H]1C[C@@H](OC(c1ccccc1)c1ccccc1)C2` [Benztropine], for which, in the assay with CA-MRSA USA300, the “drug-drug interaction with cefuroxime (checkerboard secondary screen)” value is given as “synergistic interactions”.
Take `N[C@@H](C(=O)N[C@@H]1C(=O)N2C(C(=O)O)=C(Cl)CS[C@H]12)c1ccccc1` [Cefaclor]: the FIC index result in assay [1] was “≦1”; in the assay on CA-MRSA USA300 (setting [2]), “≦0.5”.
In the case of `CC1=C(C(=O)O)N2C(=O)[C@@H](NC(=O)[C@H](N)c3ccc(O)cc3)[C@H]2SC1` [Cefadroxil], the FIC index entry in the assay on CA-MRSA USA300 (setting [2]) is listed as “≦2”.
On to `Cn1nnnc1SCC1=C(C(=O)O)N2C(=O)[C@@H](NC(=O)[C@H](O)c3ccccc3)[C@H]2SC1` [Cefamandole], for which the FIC index entry in assay [1] was “≦0.75”; in the assay with CA-MRSA USA300 (setting [2]), “≦0.63”.
For `CO[C@@]1(NC(=O)CSCC#N)C(=O)N2C(C(=O)O)=C(CSc3nnnn3C)CS[C@@H]21` [Cefmetazole], the FIC index entry in assay [1] is “≦0.75”.
As for `CO/N=C(\C(=O)N[C@@H]1C(=O)N2C(C(=O)O)=C(COC(C)=O)CS[C@H]12)c1csc(N)n1` [Cefotaxime], the FIC index entry in the assay with CA-MRSA USA300 (setting [2]) is “≦0.5”.
Turning to `CO[C@@]1(NC(=O)Cc2cccs2)C(=O)N2C(C(=O)O)=C(COC(N)=O)CS[C@@H]21` [Cefoxitin], the FIC index result in assay [1] is “≦0.75”; in the assay with CA-MRSA USA300 (setting [2]), “≦0.5”.
Consider `NC(=O)c1cc[n+](CC2=C(C(=O)O)N3C(=O)[C@@H](NC(=O)[C@@H](c4ccccc4)S(=O)(=O)[O-])[C@H]3SC2)cc1` [Cefsulodin], for which the FIC index result is given as “≦1” in assay [1] and “≦2” with CA-MRSA USA300 (setting [2]).
For `CC(C)(O/N=C(\C(=O)N[C@@H]1C(=O)N2C(C(=O)[O-])=C(C[n+]3ccccc3)CS[C@H]12)c1csc(N)n1)C(=O)O` [Ceftazidime], in that order: “≦1” and “≦2”.
Consider `CO/N=C(\C(=O)N[C@@H]1C(=O)N2C(C(=O)O)=CCS[C@H]12)c1csc(N)n1` [Ceftizoxime], for which the FIC index result in the assay with CA-MRSA USA300 (setting [2]) is reported as “≦0.5”.
For the molecule `CO/N=C(\C(=O)N[C@@H]1C(=O)N2C(C(=O)O)=C(COC(C)=O)CS[C@H]12)c1csc(N)n1` [Ceftoxamine], in assay [1], the FIC index entry is reported as “≦1”.
Take `CC1=C(C(=O)O)N2C(=O)[C@@H](NC(=O)[C@H](N)c3ccccc3)[C@H]2SC1` [Cephalexin]: the FIC index result in assay [1] is “≦1”; with CA-MRSA USA300 (setting [2]), “≦0.75”.
In the case of `CC(=O)OCC1=C(C(=O)O)N2C(=O)[C@@H](NC(=O)CCC[C@@H](N)C(=O)O)[C@H]2SC1` [Cephalosporin C], the FIC index entry in assay [1] is recorded as “≦0.75”.
Regarding `CC(=O)OCC1=C(C(=O)O)N2C(=O)[C@@H](NC(=O)Cc3cccs3)[C@H]2SC1` [Cephalothin], in the assay with CA-MRSA USA300 (setting [2]), the FIC index result was “≦0.5”.
Same read-out and setting: as for `CC1=C(C(=O)O)N2C(=O)[C@@H](NC(=O)[C@H](N)C3=CCC=CC3)[C@H]2SC1` [Cephradine], the entry is “≦2”.
`O=C(O)c1cn(C2CC2)c2cc(N3CCNCC3)c(F)cc2c1=O` [Ciprofloxacin]: the FIC index result in assay [1] is “≦2”.
Same read-out and setting: for `CC[C@H]1OC(=O)[C@H](C)[C@@H](O[C@H]2C[C@@](C)(OC)[C@@H](O)[C@H](C)O2)[C@H](C)[C@@H](O[C@@H]2O[C@H](C)C[C@H](N(C)C)[C@H]2O)[C@](C)(OC)C[C@@H](C)C(=O)[C@H](C)[C@@H](O)[C@]1(C)O` [Clarithromycin] the value was “≦2”.
Turning to `Cc1onc(-c2ccccc2Cl)c1C(=O)N[C@@H]1C(=O)N2[C@@H]1SC(C)(C)[C@@H]2C(=O)O` [Cloxacillin], the FIC index result with CA-MRSA USA300 (setting [2]) is “≦0.5”.
For the molecule `Clc1ccc2c(c1)CCN(Cc1ccccc1Cl)C2` [Compound 1-novel, 6-Chloro-2-(2-chloro-benzyl)-1,2,3,4-tetrahydro-isoquinoline], the “FIC index” value with MRSA (setting [3]) is on record as “≦2”.
Turning to `c1cc2c(s1)CCNC2` [Compound 2, 4,5,6,7-Tetrahydro-thieno[3,2-c]pyridine], the “FIC index” value in the assay on MRSA (setting [4]) was “≦2”.
On to `Oc1ccc2c(c1)CN(Cc1ccccc1Cl)CC2` [Compound 2-novel, 2-(2-Chloro-benzyl)-1,2,3,4-tetrahydro-isoquinolin-7-ol], for which, in the assay on MRSA (setting [3]), the “FIC index” value is listed as “≦2”.
As for `Clc1ccccc1CN1CCc2ccccc2C1` [Compound 3, 2-(2-Chloro-benzyl)-1,2,3,4-tetrahydro-isoquinoline], the “FIC index” value in the assay on MRSA (setting [4]) was “≦0.125”.
Regarding `c1ccc2c(c1)CCN(Cc1ccc3ccccc3c1)C2` [Compound 3-novel, 2-Naphthalen-2-ylmethyl-1,2,3,4-tetrahydro-isoquinoline], in the assay with MRSA (setting [3]), the “FIC index” value is “≦0.312”.
`Clc1cccc(CN2CCc3ccccc3C2)c1` [Compound 4, 2-(3-Chloro-benzyl)-1,2,3,4-tetrahydro-isoquinoline]: the “FIC index” value in the assay on MRSA (setting [4]) is given as “≦2”.
On to `O=C(O)C(c1ccccc1Cl)N1CCc2ccccc2C1` (stereo not shown) [Compound 4-novel, (2-Chloro-phenyl)-(3,4-dihydro-1H-isoquinolin-2-yl)-acetic acid], for which the “FIC index” value with MRSA (setting [3]) was “≦2”.
As for `Clc1ccc(CN2CCc3ccccc3C2)cc1` [Compound 5, 2-(4-Chloro-benzyl)-1,2,3,4-tetrahydro-isoquinoline], the “FIC index” value with MRSA (setting [4]) is recorded as “≦2”.
For the molecule `c1ccc(CN2CCc3ccccc3C2)cc1` [Compound 6, 2-Benzyl-1,2,3,4-tetrahydro-isoquinoline], the “FIC index” value in the assay on MRSA (setting [4]) is reported as “≦0.625”.
Still for that read-out and setting: for `c1ccc2c(c1)CCN(Cc1ccncc1)C2` [Compound 7, 2-Pyridin-4-ylmethyl-1,2,3,4-tetrahydro-isoquinoline] the value was “≦2”.
`N[C@@H]1CONC1=O` [D-cycloserine]: the FIC index entry in assay [1] was “≦2”.
The same measure, in the same setting: for `CCCCCCCCCC(=O)N[C@@H](Cc1c[nH]c2ccccc12)C(=O)N[C@H](CC(N)=O)C(=O)N[C@@H](CC(=O)O)C(=O)N[C@@H]1C(=O)NCC(=O)N[C@@H](CCCN)C(=O)N[C@@H](CC(=O)O)C(=O)N[C@H](C)C(=O)N[C@@H](CC(=O)O)C(=O)NCC(=O)N[C@H](CO)C(=O)N[C@@H]([C@H](C)CC(=O)O)C(=O)N[C@@H](CC(=O)c2ccccc2N)C(=O)O[C@@H]1C` [Daptomycin] the value was “≦2”; for `CC[C@H]1OC(=O)[C@H](C)[C@@H](O[C@H]2C[C@@](C)(OC)[C@@H](O)[C@H](C)O2)[C@H](C)[C@@H](O[C@@H]2O[C@H](C)C[C@H](N(C)C)[C@H]2O)[C@](C)(O)C[C@@H](C)C(=O)[C@H](C)[C@@H](O)[C@]1(C)O` [Erythromycin], “≦2”.
The same measure, in the same setting: for `C[C@@H]1O[C@@H]1P(=O)(O)O` [Fosfomycin] the value was “≦0.5”; for `C[C@H]1COc2c(N3CCN(C)CC3)c(F)cc3c(=O)c(C(=O)O)cn1c23` [Levofloxacin], “≦2”.
As to `C[C@@H](O)[C@H]1C(=O)N2C(C(=O)O)=C(S[C@@H]3CN[C@H](C(=O)N(C)C)C3)[C@H](C)[C@H]12` [Meropenem], the FIC index entry in the assay on CA-MRSA USA300 (setting [2]) was “≦0.75”.
`COc1cccc(OC)c1C(=O)N[C@@H]1C(=O)N2[C@@H]1SC(C)(C)[C@@H]2C(=O)O` [Methicillin]: the FIC index entry is “≦1” in assay [1] and “≦0.63” in the assay with CA-MRSA USA300 (setting [2]).
For `CCOc1ccc2ccccc2c1C(=O)N[C@@H]1C(=O)N2[C@@H]1SC(C)(C)[C@@H]2C(=O)O` [Nafcillin], in that order: “≦1” and “≦0.5”.
For `Cc1onc(-c2ccccc2)c1C(=O)N[C@@H]1C(=O)N2[C@@H]1SC(C)(C)[C@@H]2C(=O)O` [Oxacillin], in that order: “≦0.63” and “≦0.5”.
As for `CC1(C)S[C@@H]2[C@H](NC(=O)Cc3ccccc3)C(=O)N2[C@H]1C(=O)O` [Penicillin G], the FIC index result in the assay on CA-MRSA USA300 (setting [2]) is “≦0.5”.
Take `CCN1CCN(C(=O)N[C@@H](C(=O)N[C@@H]2C(=O)N3[C@@H]2SC(C)(C)[C@@H]3C(=O)O)c2ccccc2)C(=O)C1=O` [Piperacillin]: the FIC index entry is listed as “≦0.63” in assay [1] and “≦0.5” in the assay on CA-MRSA USA300 (setting [2]).
In the case of `NC[C@H]1O[C@H](O[C@H]2[C@H](O)[C@@H](O[C@H]3O[C@H](CO)[C@@H](O)[C@H](N)[C@H]3O)[C@H](N)C[C@@H]2N)[C@H](N)C[C@@H]1O` [Tobramycin], the FIC index result in assay [1] is “≦2”.
Still for that read-out and setting: for `COc1cc(Cc2cnc(N)nc2N)cc(OC)c1OC` [Trimethoprim] the value was “≦2”.
The same measure, in the same setting: as for `CN[C@H](CC(C)C)C(=O)N[C@H]1C(=O)N[C@@H](CC(N)=O)C(=O)N[C@H]2C(=O)N[C@H]3C(=O)N[C@H](C(=O)N[C@H](C(=O)O)c4cc(O)cc(O)c4-c4cc3ccc4O)[C@H](O)c3ccc(c(Cl)c3)Oc3cc2cc(c3O[C@@H]2O[C@H](CO)[C@@H](O)[C@H](O)[C@H]2O[C@H]2C[C@](C)(N)[C@H](O)[C@H](C)O2)Oc2ccc(cc2Cl)[C@H]1O` [Vancomycin], the entry is “≦2”.
Turning to `CN(C)CCC(c1ccc(Cl)cc1)c1ccccn1` (stereo not shown) [chlorpheniramine], in the assay with CA-MRSA USA300, the “drug-drug interaction with cefuroxime (checkerboard secondary screen)” value was “synergistic interactions”.
In the case of Polymyxin, in assay [1], the FIC index result is “≦0.5”.
The same measure, in the same setting: as for Tunicamycin, the entry is “≦0.75”.

Source of the values: patent publication US20140088069A1, “NOVEL ANTIBACTERIAL COMBINATION THERAPY” (priority 2011, published 2014).
